Entries after “also recorded” stand apart in the source; their conditions may differ. Each block holds one molecule with its values, some of them ahead of it.
Experiments:
C. albicans isolates = test: CLSI M27-A3 broth microdilution on Candida isolates (Table 2); format: cell-based
Procedure: (§1) The tested C. albicans, C. tropicalis, C. parapsilosis, C. glabrata and C. krusei ATCC strains and clinical isolates are listed in Table 2. MICs were determined according to the CLSI M27-A3 [22]. Antifungal agents were dissolved in 100% DMSO and diluted further in RPMI-1640 (with L-glutamine but without bicarbonate) (Sigma, Budapest, Hungary), and buffered to pH 7.0 with 0.165 M morpholinopropanesulfonic acid (MOPS; Sigma, Budapest, Hungary). The final concentration ranges used for AMB and ICAN derivatives were 0.125 to 4 μg/ml and 0.04 to 20 μg/ml, respectively. Yeast cell suspensions were prepared in RPMI 1640 medium and were adjusted to give a final inoculum concentration of 0.5×10^3 to 2.5×10^3 cells/ml. MICs were read visually after 48-h incubation at 35° C. using the partial (50%) inhibition (for ICAN derivatives) (PI) and total inhibition (for AMB and ICAN derivatives) (TI) criteria. MICs were determined at least twice. For amphotericin B isolates with MIC values of ≤2 mg/L were considered wild-types. [Pfaller M A, 2012]

C. glabrata isolates = test: as above; format: cell-based
Procedure: as §1

C. krusei isolates = test: as above; format: cell-based
Procedure: as §1

C. parapsilosis isolates = test: as above; format: cell-based
Procedure: as §1

C. tropicalis isolates = test: as above; format: cell-based
Procedure: as §1

[1] = system: clinical Candida isolates (C. albicans, C. krusei, C. tropicalis, C. glabrata, C. parapsilosis); test: Broth microdilution, MIC summarised over all clinical Candida isolates; format: cell-based; settings: range or bound over all tested isolates of five Candida species; read-out: total minimum inhibitory concentration (MICTI)
Procedure: The present inventors have discovered that 1-amino-5-isocyanonaphthalene (ICAN) and its derivatives exert excellent antifungal activity against a broad range of Candida species. […] Nevertheless, proper formulation and/or substitution with solubility enhancer groups on the naphthalene core may increase its effectiveness. Based on MIC values (MICPI=0.04−0.3 μg/ml MICTI=0.6 μg/ml) and its low cytotoxicity 1,1-N-dimethylamino-5-isocyanonaphthalene (DIMICAN) was selected to be tested on clinical Candida isolates. […] Amphotericin B (AMB) is an antifungal agent which is effective against a number of medically important fungi. The in vivo applicability of DIMICAN was tested on immunosuppressed mice and control experiments were also conducted with amphotericin B. In the model of acute invasive candidiasis, neutropenic mice were infected intravenously with C. albicans isolate 3666 (3×10^4 cfu/mouse) to establish an acute infection, and all untreated control animals died within 6 days. […]
The tested C. albicans, C. tropicalis, C. parapsilosis, C. glabrata and C. krusei ATCC strains and clinical isolates are listed in Table 2. MICs were determined according to the CLSI M27-A3 [22]. […] MICs were read visually after 48-h incubation at 35° C. using the partial (50%) inhibition (for ICAN derivatives) (PI) and total inhibition (for AMB and ICAN derivatives) (TI) criteria. MICs were determined at least twice. […]

C. albicans isolate 3666 = test: Murine model, kidney fungal burden; format: in vivo, BALB/c mice; settings: immunosuppressed mice, 10^4 cfu/mouse iv
Procedure: During an independent in vivo experiment mice were infected intravenously with C. albicans isolate 3666. The infected mice were euthanized 2 or 6 days after infection (n=5 and 6 mice/time point, respectively), as disclosed herein, to determine the fungal burdens in the kidneys. Kidney burden was analyzed using a Kruskal-Wallis test with Dunn's posttest for multiple comparisons [Foldi R 2012, Kovacs R 2014]. Results of fungal burden experiments are shown on FIGS. 3b and c. […] It is well seen in […], that on day 6. the fungal burden increased by an order of magnitude (from −10^5 to −10^6) in the case of the untreated mice, while in the case of DIMICAN it remained the same as it was on day 2. The same is valid for AMB.
We used 10-12 week-old female BALB/c mice for all experiments. Mice were immunosuppressed using 150 mg/kg intraperitoneal (ip) cyclophosphamide dose (4 days prior to infection) and 100 mg/kg ip cyclophosphamide dose (1 day prior to infection; 2 and 5 days after infection) [Spellberg B, 2005]. All mice received ceftazidime (5 mg/day subcutaneously) from days 0 to 6 after infection. Mice were given food and water ad libitum and were monitored daily. The animals were maintained in accordance with the Guidelines for the Care and Use of Laboratory Animals, and the experiments were approved by the Animal Care Committee of the University of Debrecen, Debrecen, Hungary (permission no. 12/2014).
Mice were infected via the lateral tail vein with C. albicans 3666 bloodstream isolate. In the lethality (10 mice/group) and fungal tissue burden experiments (6 mice/group) the infectious doses were 3×10^4 and 10^4 cfu/mouse, respectively. These doses led to 100% and 0% mortality, respectively by day 6 after infection among untreated mice. Inoculum density was confirmed by plating serial dilutions onto Sabouraud dextrose agar (SDA) plates.
AMB (Fungizone, commercial preparation) and DIMICAN treatment in a 0.5-ml bolus was started 1 h after infection. The doses were 1 mg AMB and 5 mg DIMICAN (in olive oil/water (o/w) emulsion) per kg body weight. All antifungals were administered intraperitoneally once daily for 5 consecutive days.
Infected mice were euthanized 2 or 6 days after infection (n=6 mice/time point) to determine the fungal burden in the kidney. […] Aliquots of 0.1 ml of the undiluted and diluted homogenates were plated onto SDA, and the colony count was determined after 48 h. Colony-forming units (CFUs) were determined after 48 h of incubation at 37° C. and results were expressed as cfus/g tissue [Spellberg B, 2005]. […]
Survival effects were analyzed by the Kaplan—Meier log-rank test. Kidney burden was analysed using a Kruskal—Wallis test with Dunn's posttest for multiple comparisons [Foldi R 2012, Kovacs R 2014].

C. albicans SC5314 = test: CLSI broth microdilution susceptibility (Table 1); format: cell-based; settings: 48 h, 35° C.; for MICPI: partial (50%) inhibition; for MICTI: total inhibition
Procedure: (§2) ICAN has 3 key moieties, namely the amino, naphthalene and isonitrile. To find out which ones of them are essential for the antifungal behavior and to design more efficient derivatives, comparative studies were carried out, where one of the moieties was exchanged or eliminated. All ICAN derivatives were tested against C. albicans SC5314, C. krusei ATCC 6258 and C. parapsilosis ATCC 22019. The antifungal agents were dissolved in 100% DMSO and diluted further in RPMI-1640 (with L-glutamine but without bicarbonate) and buffered to pH 7.0 with 0.165 M morpholinopropanesulfonic acid (MOPS). MICs were read visually after 48-h incubation at 35° C. using the partial (50%) inhibition (for ICAN derivatives) (PI) and total inhibition (for AMB and ICAN derivatives) (TI) criteria. MICs were determined at least twice.
as §1

C. krusei ATCC 6258 = test: CLSI broth microdilution susceptibility (Table 1); format: cell-based; settings: 48 h, 35° C.; for MICPI: partial (50%) inhibition; for MICTI: total inhibition
Procedure: as §2, §1

[2] = system: C. parapsilosis ATCC 22019; test: CLSI broth microdilution susceptibility (Table 1); format: cell-based; settings: 48 h, 35° C.; for MICPI: partial (50%) inhibition; for MICTI: total inhibition
Procedure: as §2, §1

[3] = system: C. albicans SC5314, C. krusei ATCC 6258 and C. parapsilosis ATCC 22019; test: CLSI broth microdilution, MIC summarised over the three Candida test strains; format: cell-based; settings: for MICTI: value or range over the three Candida strains of Table 1, total inhibition
Procedure: as §2, §1

human cell cultures = test: MTT bio assay cytotoxicity; format: cell-based; settings: MTT bio assay technique

MICTI (C. albicans isolates; isolate 456): 0.5 µg/mL
MICTI (C. albicans isolates; isolate 665): 1 µg/mL
MICTI (C. albicans isolates; isolate 685): 0.25 µg/mL
MICTI (C. albicans isolates; isolate 720): 0.5 µg/mL
MICTI (C. albicans isolates; isolate 963): 0.5 µg/mL
MICTI (C. albicans isolates; isolate 1544): 0.25 µg/mL
MICTI (C. albicans isolates; isolate 3666): 0.5 µg/mL
MICTI (C. albicans isolates; isolate 8658): 1 µg/mL
MICTI (C. albicans isolates; isolate ATCC 10231): 0.25 µg/mL
MICTI (C. glabrata isolates; isolate 14408): 0.5 µg/mL
MICTI (C. glabrata isolates; isolate 14559): 0.5 µg/mL
MICTI (C. glabrata isolates; isolate 22394): 0.5 µg/mL
MICTI (C. glabrata isolates; isolate 23429): 1 µg/mL
MICTI (C. glabrata isolates; isolate 23481): 1 µg/mL
MICTI (C. glabrata isolates; isolate 27643): 0.5 µg/mL
MICTI (C. glabrata isolates; isolate 28557): 0.5 µg/mL
MICTI (C. glabrata isolates; isolate ATCC 90030): 0.5 µg/mL
MICTI (C. krusei isolates; isolate 749): 1 µg/mL
MICTI (C. krusei isolates; isolate 1853): 1 µg/mL
MICTI (C. krusei isolates; isolate 4364): 1 µg/mL
MICTI (C. krusei isolates; isolate 5029): 1 µg/mL
MICTI (C. krusei isolates; isolate 5072): 1 µg/mL
MICTI (C. krusei isolates; isolate 25504): 0.5 µg/mL
MICTI (C. krusei isolates; isolate 34987): 1 µg/mL
MICTI (C. krusei isolates; isolate ATCC 6258): 1 µg/mL
MICTI (C. parapsilosis isolates; isolate 4133): 0.25 µg/mL
MICTI (C. parapsilosis isolates; isolate 9613): 0.25 µg/mL
MICTI (C. parapsilosis isolates; isolate 10252): 0.5 µg/mL
MICTI (C. parapsilosis isolates; isolate 18154): 0.5 µg/mL
MICTI (C. parapsilosis isolates; isolate 27001): 0.25 µg/mL
MICTI (C. parapsilosis isolates; isolate ATCC 22019): 0.5 µg/mL
MICTI (C. tropicalis isolates; isolate 579): 0.5 µg/mL
MICTI (C. tropicalis isolates; isolate 622): 1 µg/mL
MICTI (C. tropicalis isolates; isolate 1776): 1 µg/mL
MICTI (C. tropicalis isolates; isolate 2467): 0.5 µg/mL
MICTI (C. tropicalis isolates; isolate 3014): 0.5 µg/mL
MICTI (C. tropicalis isolates; isolate 5115): 0.5 µg/mL
MICTI (C. tropicalis isolates; isolate 5806): 0.25 µg/mL
MICTI (C. tropicalis isolates; isolate ATCC 750): 0.5 µg/mL
MIC [1]: ≤ 2 µg/mL
SMILES: C[C@@H]1[C@H](O)[C@@H](C)/C=C/C=C/C=C/C=C/C=C/C=C/C=C/[C@H](O[C@@H]2O[C@H](C)[C@@H](O)[C@H](N)[C@@H]2O)C[C@@H]2O[C@](O)(C[C@@H](O)C[C@@H](O)[C@H](O)CC[C@@H](O)C[C@@H](O)CC(=O)O[C@H]1C)C[C@H](O)[C@H]2C(=O)O [AMB, Amphotericin B, reference compound]
effect on kidney fungal burden, six days after infection (C. albicans isolate 3666; 5 mg/kg DIMICAN or 1 mg/kg AMB ip once daily for 5 days, p<0.05 (AMB), p<0.001 (DIMICAN) vs control): efficient; also recorded: significantly lower fungal burden
effect on kidney fungal burden, two days after infection (C. albicans isolate 3666; 5 mg/kg DIMICAN or 1 mg/kg AMB ip once daily, P>0.05 vs control): no effect on fungal load

SMILES: Nc1cccc2c(N)cccc12 [DAN, 1,5-diaminonaphthalene, reference compound]
MICPI (C. albicans SC5314): 50 µg/mL
MICTI (C. albicans SC5314): 100 µg/mL
MICPI (C. krusei ATCC 6258): 50 µg/mL
MICTI (C. krusei ATCC 6258): 100 µg/mL
MICPI [2]: 50 µg/mL
MICTI [2]: 100 µg/mL

MICPI (C. albicans SC5314): 0.3 µg/mL
MICTI (C. albicans SC5314): 0.6 µg/mL
MICPI (C. krusei ATCC 6258): 0.3 µg/mL
MICTI (C. krusei ATCC 6258): 0.6 µg/mL
MICPI [2]: 0.3 µg/mL
MICTI [2]: 0.6 µg/mL
MICPI ([3]; value or range over the three Candida strains of Table 1, partial (50%) inhibition): 0.3 µg/mL
MICTI [3]: 0.6 µg/mL
SMILES: [C-]#[N+]c1cccc2c([N+]#[C-])cccc12 [DIN, 1,5-diisocyanonaphthalene]

MICPI (C. albicans SC5314): 0.6 µg/mL
MICTI (C. albicans SC5314): 2.5 µg/mL
MICPI (C. krusei ATCC 6258): 0.6 µg/mL
MICTI (C. krusei ATCC 6258): 1.25 µg/mL
MICPI [2]: 0.6 µg/mL
MICTI [2]: 1.25 µg/mL
MICTI [3]: 1.25 to 2.5 µg/mL
SMILES: [C-]#[N+]c1cccc2c(NCC)cccc12 [EICAN, N-ethyl-1-amino-5-isocyanonaphthalene]

SMILES: [C-]#[N+]c1cccc2c(N)cccc12 [ICAN, 1-amino-5-isocyanonaphthalene]
MICPI (C. albicans SC5314): 1.25 µg/mL
MICTI (C. albicans SC5314): 5 µg/mL
MICPI (C. krusei ATCC 6258): 0.6 µg/mL
MICTI (C. krusei ATCC 6258): 2.5 µg/mL
MICPI [2]: 0.3 µg/mL
MICTI [2]: 0.6 µg/mL
MICTI [3]: 0.6 to 5 µg/mL
LD50 (human cell cultures): 10 µg/mL

SMILES: [C-]#[N+]c1ccc([N+]#[C-])cc1 [PDI, 1,4-phenylenediisocyanide, reference compound]
MICPI (C. albicans SC5314): 50 µg/mL
MICTI (C. albicans SC5314): 100 µg/mL
MICPI (C. krusei ATCC 6258): 50 µg/mL
MICTI (C. krusei ATCC 6258): 100 µg/mL
MICPI [2]: 50 µg/mL
MICTI [2]: 100 µg/mL

MICPI (C. albicans SC5314): 0.6 µg/mL
MICTI (C. albicans SC5314): 2.5 µg/mL
MICPI (C. krusei ATCC 6258): 0.15 µg/mL
MICTI (C. krusei ATCC 6258): 2.5 µg/mL
MICPI [2]: 0.6 µg/mL
MICTI [2]: 1.75 µg/mL
MICTI [3]: 1.75-2. μg/ml
SMILES: [C-]#[N+]c1cccc2c(NCCC)cccc12 [PICAN, N-(prop-1-yl)-1-amino-5-isocyanonaphthalene]

— patent US20230048678A1, “ICAN DERIVATIVES FOR ANTIFUNGAL USE” (DEBRECENI EGYETEM, priority 2019, published 2023)
